The assay addresses JAK2 (Homo sapiens, UniProt O60674). The assay is described as follows: AlphaScreen SureFire p-STAT5 (p-Tyr694/699)-EPO-JAK2 cell-based assay (UT-7 cells). Further details: purchased Invitrogen. As to conditions: EPO 45 ng/mL, n=5, read-out: IC50, EPO-stimulated pSTAT5 JAK2 cell-based assay. Here is the method: AlphaScreen SureFire Protocol p-STAT5 (p-Tyr694/699)-EPO-JAK2 Cell-Based Assay
The fold selectivity of test compounds for JAK1 over JAK2 is determined by a cellular assay, in which EPO is used to activate JAK2-STAT5 pathway, and pSTAT5 is used as the readout.
Starve UT-7 cells overnight in DMEM medium with 0.5% […] (FBS) and 1× Pen/Strep at 37° C. (without GM-CSF). Plate 50000 cells per well in BD 96 well black plates with clear bottoms (in medium without FBS and GM-CSF). Maintain the plates at RT for 30-60 minutes before incubating overnight at 37° C. and 5% CO2. Count cells using Vi-Cell counter, use a cell suspension at 500000 cells/mL and plated 100 μL/well in […] Biocoat plates Catalog #354640. […]
Follow the following steps sequentially: make acceptor mix (activation buffer/reaction buffer/acceptor beads); transfer 4 μL lysate from 96 well plates to 384 well-Proxiplate; add 5 μL acceptor mix to 384 proxiplate plate(s) with multidrop combi; seal plates with aluminum seal; shake 1-2 minutes on plate shaker; incubate plate at RT for 2 hr with gentle shaking; make donor mix (donor beads in dilution buffer); add 2 μl donor mix to assay plates with multidrop combi; seal plates with aluminum seal; shake 1-2 minutes on plate shaker; incubate at RT for 2 hr with gentle shaking; read plate with Envision; protocol AlphaScreen Surefire 384.
Background: Bead proximity is the source of the signal in Alpha formats.

Sequence of JAK2 (O60674 whole entry): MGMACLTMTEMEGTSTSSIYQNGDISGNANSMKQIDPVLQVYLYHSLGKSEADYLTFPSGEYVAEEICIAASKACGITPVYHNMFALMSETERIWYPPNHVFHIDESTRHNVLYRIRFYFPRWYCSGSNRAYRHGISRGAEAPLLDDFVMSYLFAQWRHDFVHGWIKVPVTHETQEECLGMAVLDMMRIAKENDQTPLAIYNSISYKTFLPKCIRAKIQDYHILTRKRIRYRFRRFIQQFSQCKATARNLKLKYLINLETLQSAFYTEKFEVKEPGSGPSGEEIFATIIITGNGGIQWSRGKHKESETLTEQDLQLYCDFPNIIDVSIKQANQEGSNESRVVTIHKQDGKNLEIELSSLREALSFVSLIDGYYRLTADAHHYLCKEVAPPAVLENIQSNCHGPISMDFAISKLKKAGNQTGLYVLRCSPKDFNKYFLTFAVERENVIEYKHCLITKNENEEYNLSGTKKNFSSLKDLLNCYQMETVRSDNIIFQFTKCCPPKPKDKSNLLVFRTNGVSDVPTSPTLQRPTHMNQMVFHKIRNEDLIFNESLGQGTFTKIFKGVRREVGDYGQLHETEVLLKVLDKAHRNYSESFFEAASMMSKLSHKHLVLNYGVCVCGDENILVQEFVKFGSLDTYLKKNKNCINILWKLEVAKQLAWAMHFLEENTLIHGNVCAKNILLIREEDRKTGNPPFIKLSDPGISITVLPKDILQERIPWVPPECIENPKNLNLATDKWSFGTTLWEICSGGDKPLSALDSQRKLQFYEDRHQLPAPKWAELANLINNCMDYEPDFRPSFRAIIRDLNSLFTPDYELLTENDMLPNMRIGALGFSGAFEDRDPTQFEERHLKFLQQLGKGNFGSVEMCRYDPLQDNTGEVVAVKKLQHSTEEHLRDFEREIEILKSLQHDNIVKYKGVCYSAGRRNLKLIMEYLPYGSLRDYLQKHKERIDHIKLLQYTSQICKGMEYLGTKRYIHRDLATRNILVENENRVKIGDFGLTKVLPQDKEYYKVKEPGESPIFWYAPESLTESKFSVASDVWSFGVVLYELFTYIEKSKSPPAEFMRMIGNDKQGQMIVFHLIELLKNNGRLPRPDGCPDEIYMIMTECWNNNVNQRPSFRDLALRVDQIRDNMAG

With `Cc1cc(Nc2cc(O[C@H]3CC[C@@H](NC[C@@H](O)C(F)(F)F)CC3)cc3c2ncn3C)nn1C` [Example 1, (2R)-3-{[cis-4-({4-[(1,5-Dimethyl-1H-pyrazol-3-yl)amino]-1-methyl-1H-benzimidazol-6-yl}oxy)cyclohexyl]amino}-1,1,1-trifluoropropan-2-ol], the IC50 was 11.8 µM.

Usually IC50 stands for the concentration needed to halve the response being measured.
